Columns and labels:
[1] = tested on: IFN-alpha signaling pathway; assay: HEK-Blue IFN-alpha SEAP reporter assay; type: cell-based
Experimental: (§1) The effects of putative inhibitors on pro-inflammatory cytokine pathways are assessed using HEK-Blue cells engineered for the detection of bioactive cytokines via activation of JAK/STAT pathways and subsequent expression of the SEAP reporter gene. Cells are treated with their relevant cytokines+/−peptides or control antibodies, and 20 hours after treatment activation of the relevant cytokine receptor is determined via SEAP expression through mixing cell supernatants with a Quanti-Blue colorimetric reagent and measuring optical density at 600 nm.
(§2) Reporter lines HEK-Blue TL-4/TL-15/IFN-alpha were cultured in DMEM with GlutaMAX and 10% HI FBS (Gibco). […] After 24 hours, cells were treated with 10 μL of their relevant cytokines (StemCell Technologies) at the previously determined EC75 for activation (1.164 ng/mL for HEK-Blue IL-4, 2.26 ng/mL for HEK-Blue IL-15, and 0.456 ng/mL for HEK-Blue IFN-alpha), with or without 10 μL of peptides (5 uM final concentration) or control antibodies (1 ug/well). […]
(§3) 20-22 hours after treatment, 20 μL of the cell supernatants were collected and transferred to 96-well white flat opaque-bottom plates (Costar) and each sample was mixed with 180 μL of Quanti-Blue reagent. […] Assay plates were then removed from the incubator and the optical density of each well was measured at 600 nm on a GloMax plate reader. […]

[2] = tested on: Interferon Regulatory Factor (IRF) pathway; assay: Dual Reporter Assay: NF-kB-SEAP and IRF-Lucia luciferase reporter monocyte (THP1) cells +/- TLR agonists; type: cell-based, human
Experimental: (§4) To determine the effect of the Target Protein on TLR activity, the Target Protein, irrelevant proteins, and controls were applied+/−established TLR agonists to a commercial reporter cell line which monitors the two main signal transduction pathways that respond to TLR activation. To determine which primary, human, immune cells are most responsive to the Target Proteins, the Target Proteins were applied to Peripheral Blood Mononuclear Cells (PBMCs) and then 24 hours later the PBMCs were subjected to single cell RNA-seq.
Dual Reporter Assay: NF-kB-SEAP and IRF-Lucia luciferase reporter monocyte (THP1) cells (InvivoGen) are cultured in RPMI 1640 media supplemented with HEPES buffer (10 mM), sodium pyruvate (1 mM), glucose (4.5 g/L), fetal bovine serum (10%), penicillin (100 U/mL), streptomycin ([…]), and 2-mercaptoethanol (0.05 mM). THP1 cells are treated with 100 ng/mL LPS (Sigma-Aldrich) for 24 hrs, the target protein (final conc. 10 μM), or left untreated.
After treatment, THP1 cells are cultured for 24 hrs and then assayed for reporter activity. Both reporter proteins are measurable in the cell culture supernatant when using QUANTI-Blue (InvivoGen), a SEAP detection reagent, and QUANTI-Luc (InvivoGen), a luciferase detection reagent. QUANTI-Blue is a colorimetric enzyme assay developed to determine any alkaline phosphatase activity in a biological sample, such as cell culture supernatant. QUANTI-Luc is a lyophilized assay reagent containing all the components required to quantitatively measure the activity of Lucia Luciferase other coelenterazine-utilizing luciferases. Increased reporter activity after treatment with target protein is observed in cells where the target protein is immune stimulating. Additionally, decreased reporter activity after treatment with the target protein is observed in cells where the target protein is immune dampening.
as §4, with “proteins” for “proteins,”

[3] = tested on: Peripheral Blood Mononuclear Cells (PBMCs); assay: single cell RNA-seq of PBMCs treated with target protein; type: cell-based, human; settings: 10 μM, 24 hours, vs scrambled protein control
Experimental: as §4
scRNA-seq: From example: Shifts in cell populations after treatment with Target Proteins are assessed by single cell RNA-seq (scRNA-seq). Target proteins (e.g., listed in Table 1) are synthesized through Fluorenylmethyloxycarbonyl (Fmoc) protection group chemistry using Solid Phase Peptide Synthesis (SPPS). […]
Post sequencing, reads are aligned to the human reference genome (GENCODE34/GRCH38). Reads are demultiplexed using DNA-barcoded antibodies and run through quality control (g. doublets are removed, singlet cells are selected with less than 15% mitochondria contamination at RNA levels and reads contain higher than 500 genes). […]
scRNA-seq: From example: Shifts in cell populations after treatment with Target Proteins are assessed by single cell RNA-seq (scRNA-seq). […]

IL-4 signaling pathway = assay: HEK-Blue IL-4 SEAP reporter assay; type: cell-based
Experimental: as §1
Reporter lines HEK-Blue TL-4/TL-15/IFN-alpha were cultured in DMEM with GlutaMAX and 10% HI FBS (Gibco). Cells were seeded into black 96-well optical clear flat-bottomed PhenoPlates at densities of 25000 cells/well and 100 uL/well and allowed to rest overnight in a 37 C incubator with 5% CO2. After 24 hours, cells were treated with 10 μL of their relevant cytokines (StemCell Technologies) at the previously determined EC75 for activation (1.164 ng/mL for HEK-Blue IL-4, 2.26 ng/mL for HEK-Blue IL-15, and 0.456 ng/mL for HEK-Blue IFN-alpha), with or without 10 μL of peptides (5 uM final concentration) or control antibodies (1 ug/well). Cells were kept overnight in a 37 C incubator with 5% C02.
20-22 hours after treatment, 20 μL of the cell supernatants were collected and transferred to 96-well white flat opaque-bottom plates (Costar) and each sample was mixed with 180 μL of Quanti-Blue reagent. Colorimetric reactions were allowed to develop in a 37 C incubator with 5% C02 for a certain duration of time (3 hours for HEK-Blue IL-4, 2 hours for HEK-Blue IL-15, and 1 hour for IFN-alpha). Assay plates were then removed from the incubator and the optical density of each well was measured at 600 nm on a GloMax plate reader. Relative activation of the cytokine signaling pathway in question was determined by ratioing the optical density of each sample to the average optical density for the cytokine-only treated cells from the same plate.

IL-15 signaling pathway = assay: HEK-Blue IL-15 SEAP reporter assay; type: cell-based
Experimental: as §1, §2, §3

[4] = peptide 5 uM, cytokine at EC75, SEAP OD 600 nm
[5] = THP-1 dual reporter cells, protein 10 μM vs scramble protein, 24 hours

Substance: SEQ ID NO: 3915: novel peptide capable of activating the signaling pathway for IFN-alpha (LRRAIWGLLCLMVAEENQEASLRKLAVRRKFWRLGRATQRYSVAW; listed as Homo sapiens)
- activator of the IFN-alpha signaling pathway (grade in words) ([1]; FIG. 11): moderate activator
- Relative activity (compared to cytokine only controls), Cytokine IFN-a [1, 4]: +40%

Substance: SEQ ID NO: 6516: novel, secreted peptide that inhibits the innate immune response caused by toll-like receptor agonists (MAAPSNKTELAWSPRLAA; listed as Homo sapiens)
- relative IRF activity (reporter gene expression) ([2]; THP-1 dual reporter cells, peptide 0, 2.5, 5, 7.5, and 10 μM in the presence of LPS, 24 hours): inhibition
- IRF response, co-treated with TLR1/2 agonist [2, 5]: inhibited
- IRF response, co-treated with TLR2 agonist [2, 5]: no significant effect
- IRF response, co-treated with TLR3 agonist [2, 5]: no significant effect
- IRF response, co-treated with TLR4 agonist [2, 5]: inhibited
- IRF response, co-treated with TLR5 agonist [2, 5]: no significant effect
- IRF response, co-treated with TLR6/2 agonist [2, 5]: inhibited
- IRF response, co-treated with TLR7 agonist [2, 5]: no significant effect
- IRF response, co-treated with TLR8 agonist [2, 5]: no significant effect
- IRF response, co-treated with TLR9 agonist [2, 5]: no significant effect
- IRF signal transduction pathway response from several TLRs ([2]; reporter cell line +/- TLR agonists): significantly blocks
- effect on T-cells, B-cells, and NK-cells (up/downregulated genes, scRNA-seq) [3]: relatively small effects
- effect on active monocytes and dendritic cells (up/downregulated genes, scRNA-seq) [3]: strongly affected

Substance: SEQ ID NO: 1238_L8V: novel peptide capable of inhibiting pro-inflammatory cytokine pathways (LVVRWAVVVFRSSTAALPRAAEAARRSEKWPKTSALGRRS; listed as Homo sapiens)
- inhibitor of the IL-4 signaling pathway (grade in words) (IL-4 signaling pathway; FIG. 9): strong
- Relative activity (compared to cytokine only controls), Cytokine IL-15 (IL-15 signaling pathway; [4]): −70%

Substance: SEQ ID NO: 6091: novel peptide capable of inhibiting pro-inflammatory cytokine pathways (IFLFLPIFSFPQIFLLLFYHLE; listed as Homo sapiens)
- Relative activity (compared to cytokine only controls), Cytokine IL-4 (IL-4 signaling pathway; [4]): −40%
- inhibitor of the IL-15 signaling pathway (grade in words) (IL-15 signaling pathway; FIG. 10): strong inhibitor
